≈ marks a conversion by molar mass, not a printed value.
How the values were obtained:
Format in all cases: cell-based
[1] = tested on: K. pneumoniae MP-648; assay: Broth dilution MIC determination (CLSI), K. pneumoniae MP-648; settings: Klebsiella pneumoniae, MP648; strain MP-648, broth dilution
[2] = tested on: K. pneumoniae MP-546; assay: Broth dilution MIC determination (CLSI), K. pneumoniae MP-546; settings: Klebsiella pneumoniae, MP546; strain MP-546, broth dilution
[3] = tested on: S. aureus MP-12; assay: Broth dilution MIC determination (CLSI), S. aureus MP-12; settings: Staphylococcus aureus, MP12; strain MP-12, broth dilution
[4] = tested on: A. baumannii MP-15; assay: Broth dilution MIC determination (CLSI), A. baumannii MP-15; settings: Acinetobacter baumannii, MP15; strain MP-15, broth dilution; read-out: MIC A. baumanii MP-15
[5] = tested on: E. coli MP-4; assay: Broth dilution MIC determination (CLSI), E. coli MP-4; settings: Escherichia coli, MP4; strain MP-4, broth dilution; read-out: MIC E. coli MP-4
[6] = tested on: P. aeruginosa MP-3; assay: Broth dilution MIC determination (CLSI), P. aeruginosa MP-3; settings: Pseudomonas aeruginosa, MP3; strain MP-3, broth dilution

Row | SMILES | MIC [1] [µg/mL] | MIC [2] [µg/mL] | MIC [3] [µg/mL] | MIC [4] [µg/mL] | MIC [5] [µg/mL] | MIC [6] [µg/mL]
1 | CCN(C)CC(C)(C)CC(=O)N1CC([C@@H]2COC(=O)C(C)(C)C(=O)[C@H](C)[C@@H](O[C@@H]3O[C@H](C)C[C@H](N(C)C)[C@H]3O)[C@](C)(OC)C[C@@H](C)CN2C)C1 [Compound 122, (3R,6R,8R,9R,10R)-9-(((2S,3R,4S,6R)-4-(dimethylamino)-3-hydroxy-6-methyltetrahydro-2H-pyran-2-yl)oxy)-3-(1-(4-(ethyl(methyl)amino)-3,3-dimethylbutanoyl)azetidin-3-yl)-8-methoxy-4,6,8,10,12,12-hexamethyl-1-oxa-4-azacyclotridecane-11,13-dione] | 4 to 32 (≈ 5.63 to 45 µM) | 4 to 32 (≈ 5.63 to 45 µM) | 4 to 32 (≈ 5.63 to 45 µM) | > 32 | < 4 | > 32
2 | COCC(C)N1CCC([C@H]2COC(=O)C(C)(C)C(=O)[C@H](C)[C@@H](O[C@@H]3O[C@H](C)C[C@H](N(C)C)[C@H]3O)[C@](C)(OC)C[C@@H](C)CN2C)CC1 (stereo partly drawn) [Compound 124, (3S,6R,8R,9R,10R)-9-(((2S,3R,4S,6R)-4-(dimethylamino)-3-hydroxy-6-methyltetrahydro-2H-pyran-2-yl)oxy)-8-methoxy-3-(1-(1-methoxypropan-2-yl)piperidin-4-yl)-4,6,8,10,12,12-hexamethyl-1-oxa-4-azacyclotridecane-11,13-dione] | 4 to 32 (≈ 6.1 to 48.8 µM) | < 4 | 4 to 32 (≈ 6.1 to 48.8 µM) | > 32 | < 4 | > 32
3 | CO[C@]1(C)C[C@@H](C)CN(C)[C@H](C2CN(C(=O)CCN(C)CC(C)C)C2)COC(=O)C(C)(C)C(=O)[C@H](C)[C@H]1O[C@@H]1O[C@H](C)C[C@H](N(C)C)[C@H]1O [Compound 125, (3R,6R,8R,9R,10R)-9-(((2S,3R,4S,6R)-4-(dimethylamino)-3-hydroxy-6-methyltetrahydro-2H-pyran-2-yl)oxy)-3-(1-(3-(isobutyl(methyl)amino)propanoyl)azetidin-3-yl)-8-methoxy-4,6,8,10,12,12-hexamethyl-1-oxa-4-azacyclotridecane-11,13-dione] | 4 to 32 (≈ 5.74 to 45.9 µM) | 4 to 32 (≈ 5.74 to 45.9 µM) | > 32 | > 32 | < 4 | > 32
4 | CO[C@]1(C)C[C@@H](C)CN(C)[C@H](C2CN(C(=O)[C@H]3CCN(CC4CC4)C3)C2)COC(=O)C(C)(C)C(=O)[C@H](C)[C@H]1O[C@@H]1O[C@H](C)C[C@H](N(C)C)[C@H]1O [Compound 126, (3R,6R,8R,9R,10R)-3-(1-((S)-1-(cyclopropylmethyl)pyrrolidine-3-carbonyl)azetidin-3-yl)-9-(((2S,3R,4S,6R)-4-(dimethylamino)-3-hydroxy-6-methyltetrahydro-2H-pyran-2-yl)oxy)-8-methoxy-4,6,8,10,12,12-hexamethyl-1-oxa-4-azacyclotridecane-11,13-dione] | 4 to 32 (≈ 5.66 to 45.3 µM) | 4 to 32 (≈ 5.66 to 45.3 µM) | 4 to 32 (≈ 5.66 to 45.3 µM) | > 32 | < 4 | > 32
5 | CO[C@]1(C)C[C@@H](C)CN(C)[C@H](C2CN(CC3CCOC3)C2)COC(=O)C(C)(C)C(=O)[C@H](C)[C@H]1O[C@@H]1O[C@H](C)C[C@H](N(C)C)[C@H]1O (stereo partly drawn) [Compound 127, (3R,6R,8R,9R,10R)-9-(((2S,3R,4S,6R)-4-(dimethylamino)-3-hydroxy-6-methyltetrahydro-2H-pyran-2-yl)oxy)-8-methoxy-4,6,8,10,12,12-hexamethyl-3-(1-((tetrahydrofuran-3-yl)methyl)azetidin-3-yl)-1-oxa-4-azacyclotridecane-11,13-dione] | 4 to 32 (≈ 6.25 to 50 µM) | 4 to 32 (≈ 6.25 to 50 µM) | 4 to 32 (≈ 6.25 to 50 µM) | > 32 | < 4 | > 32
6 | CO[C@]1(C)C[C@@H](C)CN(C)[C@H]([C@H]2C[C@@H](N(C)C)C2)COC(=O)C(C)(C)C(=O)[C@H](C)[C@H]1O[C@@H]1O[C@H](C)C[C@H](N(C)C)[C@H]1O [Compound 128, (3R,6R,8R,9R,10R)-9-(((2S,3R,4S,6R)-4-(dimethylamino)-3-hydroxy-6-methyltetrahydro-2H-pyran-2-yl)oxy)-3-((1s,3S)-3-(dimethylamino)cyclobutyl)-8-methoxy-4,6,8,10,12,12-hexamethyl-1-oxa-4-azacyclotridecane-11,13-dione] | 4 to 32 (≈ 6.69 to 53.5 µM) | 4 to 32 (≈ 6.69 to 53.5 µM) | > 32 | > 32 | < 4 | > 32
7 | CO[C@]1(C)C[C@@H](C)CN(C)[C@H]([C@H]2C[C@H](N(C)CC(C)C)C2)COC(=O)C(C)(C)C(=O)[C@H](C)[C@H]1O[C@@H]1O[C@H](C)C[C@H](N(C)C)[C@H]1O [Compound 131, (3R,6R,8R,9R,10R)-9-(((2S,3R,4S,6R)-4-(dimethylamino)-3-hydroxy-6-methyltetrahydro-2H-pyran-2-yl)oxy)-3-((1r,3R)-3-(isobutyl(methyl)amino)cyclobutyl)-8-methoxy-4,6,8,10,12,12-hexamethyl-1-oxa-4-azacyclotridecane-11,13-dione] | < 4 | < 4 | 4 to 32 (≈ 6.25 to 50 µM) | 4 to 32 (≈ 6.25 to 50 µM) | < 4 | > 32
8 | CO[C@]1(C)C[C@@H](C)CN(C)[C@H](C2CN(Cc3cc(C)on3)C2)COC(=O)C(C)(C)C(=O)[C@H](C)[C@H]1O[C@@H]1O[C@H](C)C[C@H](N(C)C)[C@H]1O [Compound 132, (3R,6R,8R,9R,10R)-9-(((2S,3R,4S,6R)-4-(dimethylamino)-3-hydroxy-6-methyltetrahydro-2H-pyran-2-yl)oxy)-8-methoxy-4,6,8,10,12,12-hexamethyl-3-(1-((5-methylisoxazol-3-yl)methyl)azetidin-3-yl)-1-oxa-4-azacyclotridecane-11,13-dione] | > 32 | 4 to 32 (≈ 6.15 to 49.2 µM) | 4 to 32 (≈ 6.15 to 49.2 µM) | > 32 | 4 to 32 (≈ 6.15 to 49.2 µM) | > 32
9 | CCN(C)CCCC(=O)N1CC([C@@H]2COC(=O)C(C)(C)C(=O)[C@H](C)[C@@H](O[C@@H]3O[C@H](C)C[C@H](N(C)C)[C@H]3O)[C@](C)(OC)C[C@@H](C)CN2C)C1 [Compound 135, (3R,6R,8R,9R,10R)-9-(((2S,3R,4S,6R)-4-(dimethylamino)-3-hydroxy-6-methyltetrahydro-2H-pyran-2-yl)oxy)-3-(1-(4-(ethyl(methyl)amino)butanoyl)azetidin-3-yl)-8-methoxy-4,6,8,10,12,12-hexamethyl-1-oxa-4-azacyclotridecane-11,13-dione] | 4 to 32 (≈ 5.86 to 46.9 µM) | > 32 | > 32 | > 32 | 4 to 32 (≈ 5.86 to 46.9 µM) | > 32
10 | CCCN1CC([C@@H]2[C@@H](C)OC(=O)C(C)(C)C(=O)[C@H](C)[C@@H](O[C@@H]3O[C@H](C)C[C@H](N(C)C)[C@H]3O)[C@](C)(OC)C[C@@H](C)CN2C)C1 [Compound 136, (2R,3R,6R,8R,9R,10R)-9-(((2S,3R,4S,6R)-4-(dimethylamino)-3-hydroxy-6-methyltetrahydro-2H-pyran-2-yl)oxy)-8-methoxy-2,4,6,8,10,12,12-heptamethyl-3-(1-propylazetidin-3-yl)-1-oxa-4-azacyclotridecane-11,13-dione] | > 32 | > 32 | > 32 | > 32 | 4 to 32 (≈ 6.54 to 52.3 µM) | > 32
11 | CO[C@]1(C)C[C@@H](C)CN(C)[C@H](C2CN(C(=O)CN3CCCC3)C2)COC(=O)C(C)(C)C(=O)[C@H](C)[C@H]1O[C@@H]1O[C@H](C)C[C@H](N(C)C)[C@H]1O [Compound 138, (3R,6R,8R,9R,10R)-9-(((2S,3R,4S,6R)-4-(dimethylamino)-3-hydroxy-6-methyltetrahydro-2H-pyran-2-yl)oxy)-8-methoxy-4,6,8,10,12,12-hexamethyl-3-(1-(2-(pyrrolidin-1-yl)acetyl)azetidin-3-yl)-1-oxa-4-azacyclotridecane-11,13-dione] | 4 to 32 (≈ 6 to 48 µM) | < 4 | 4 to 32 (≈ 6 to 48 µM) | > 32 | < 4 | > 32
12 | CO[C@]1(C)C[C@@H](C)CN(C)[C@H](C2CN(C(=O)CCCN(C)C)C2)COC(=O)C(C)(C)C(=O)[C@H](C)[C@H]1O[C@@H]1O[C@H](C)C[C@H](N(C)C)[C@H]1O [Compound 139, (3R,6R,8R,9R,10R)-9-(((2S,3R,4S,6R)-4-(dimethylamino)-3-hydroxy-6-methyltetrahydro-2H-pyran-2-yl)oxy)-3-(1-(4-(dimethylamino)butanoyl)azetidin-3-yl)-8-methoxy-4,6,8,10,12,12-hexamethyl-1-oxa-4-azacyclotridecane-11,13-dione] | > 32 | > 32 | > 32 | > 32 | 4 to 32 (≈ 5.98 to 47.8 µM) | > 32
13 | CCCN1CCC([C@]2(C)COC(=O)C(C)(C)C(=O)[C@H](C)[C@@H](O[C@@H]3O[C@H](C)C[C@H](N(C)C)[C@H]3O)[C@](C)(OC)C[C@@H](C)CN2C)CC1 [Compound 143, (3R,6R,8R,9R,10R)-9-(((2S,3R,4S,6R)-4-(dimethylamino)-3-hydroxy-6-methyltetrahydro-2H-pyran-2-yl)oxy)-8-methoxy-3,4,6,8,10,12,12-heptamethyl-3-(1-propylpiperidin-4-yl)-1-oxa-4-azacyclotridecane-11,13-dione] | < 4 | < 4 | > 32 | > 32 | < 4 | > 32
